Each structure is given as a SMILES string.

This data set in a line: gradient 5% acetonitrile 3 min, to 50% in 2 min, to 85% in 15 min, held 3 min, 100 µL/min. The settings on record: column: Zorbax Extend-C18 2.1 x 50 mm; eluents: water / acetonitrile, 0.1% formic acid. A digest of the protocol:
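Mixtures of ~100 pure standards were chromatographed on a Zorbax Extend-C18 column (2.1 × 50 mm, 1.8 μm) at 100 μL/min using water and acetonitrile, each with 0.1% formic acid. Detection used a quadrupole time-of-flight mass spectrometer in positive and negative ionization mode, and data collection spanned 3 months. Retention time was obtained from adduct peaks picked computationally and each checked manually.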
In turn, `Cc1nn(C(=O)CC(C)C)c(C)c1S(=O)(=O)N1CCCC1` showed an RP-LC retention time of 586 s.

Take `CC(C)OCCCNC(=O)C1Cn2cccc2C(=O)N1` (stereo not given): the RP-LC retention time worked out at 602 s.

`Clc1ccc2nc(N3CCOCC3)nc(-c3ccccc3)c2c1` came in with an RP-LC retention time of 882 s.

Compound `CC(C)Cc1ccc(C(C)C(=O)N2CC(=O)Nc3ccccc32)cc1` (stereo not given) came in with an RP-LC retention time of 968 s.

For the compound `CCCNC(=O)c1sc(-n2nc(C)c(Cl)c2C)nc1C`, the RP-LC retention time was 1130 s.

Compound `CN1CCCc2cc(C(CNC(=O)C(=O)NCc3ccc4c(c3)OCO4)N3CCCC3)ccc21` (stereo not given) showed an RP-LC retention time of 709 s.

Turning to `O=C(NC(c1ccccc1)c1nnc(N2CCCC2)o1)c1ccccc1Cl` (stereo not given), the RP-LC retention time stood at 867 s.

As for `CSc1ccc(NC(=O)N2CCC(c3nc(C(=O)N4CCCCC4)c(C)o3)CC2)cc1`, the RP-LC retention time stood at 840 s.

In the case of `Cc1ccc(Nc2c(-c3cccc(Cl)c3)nc3ccc(C)cn23)cc1`, the RP-LC retention time came to 804 s.

`Cc1ccc(S(=O)(=O)N2CCC3(CCC(CN4CCN(C)CC4)O3)CC2)cc1Cl` (stereo not given) showed an RP-LC retention time of 655 s.

Take `COc1ccc(S(=O)(=O)N2CCc3c(C(=O)NCCN(C)C)cccc32)cc1`: the RP-LC retention time was found to be 635 s.

`CCn1c(=O)sc2cc(S(=O)(=O)N3CCC(C(=O)NCCC4=CCCCC4)CC3)ccc21`: the RP-LC retention time stood at 958 s.

`CCOc1ccc(NC2=NS(=O)(=O)C(c3ccc(OC)cc3)=C2C)cc1` came in with an RP-LC retention time of 940 s.

Take `COCc1nc(C2CCN(C(=O)Nc3ccc4c(c3)OCCO4)C2)no1` (stereo not given): the RP-LC retention time turned out to be 662 s.

Compound `CC(C)NC(=O)C1CCCN(c2nc3ncn(CC(=O)Nc4ccc5c(c4)OCO5)c(=O)c3s2)C1` (stereo not given) gave an RP-LC retention time of 678 s.

The compound `COC(=O)c1cc(S(=O)(=O)N2CCCC2C(=O)Nc2cccc3c2CCCC3)cn1C` (stereo not given) yielded an RP-LC retention time of 1020 s.

As for `Cc1ccc(-c2noc(C3CC(=O)N(c4ccc5c(c4)OCCO5)C3)n2)cc1` (stereo not given), the RP-LC retention time was determined as 943 s.

As to `Cc1cccc(-c2noc(C3CCCN3C(=O)Nc3ccccc3)n2)c1` (stereo not given), the RP-LC retention time was found to be 980 s.

Compound `CC(C)c1cc(C2CCCN2C(=O)c2ccc3c(c2)OCO3)on1` (stereo not given) came in with an RP-LC retention time of 824 s.

Compound `COc1ccc(OCC2c3cc(OC)c(OC)cc3CCN2C(=O)CC(C)C)cc1` (stereo not given) showed an RP-LC retention time of 891 s.

In turn, `O=C(NCc1ccc(F)c(Cl)c1)C1CCCN(c2cnc3nccnc3c2)C1` (stereo not given) yielded an RP-LC retention time of 757 s.

`CCCn1c(=O)c(C)nc2cc(-c3noc(/C=C/c4cccs4)n3)ccc21` showed an RP-LC retention time of 792 s.

`CN(C)c1cccc(C(=O)NC2CCN(c3ccc(F)cc3)C2=O)c1` (stereo not given) came in with an RP-LC retention time of 705 s.

`CC(C)n1cnnc1CC1CCN(S(=O)(=O)Cc2ccccc2)C1` (stereo not given) registered an RP-LC retention time of 659 s.

In turn, `O=c1ccn(-c2cccc(F)c2)nc1-c1nc(-c2cccc(Cl)c2)no1` returned an RP-LC retention time of 992 s.

With `CN(C)CCn1nnc2cc(-c3noc(-c4cccc(Cl)c4)n3)ccc21`, the RP-LC retention time was 708 s.

As for `COc1cc2c(=O)c(C(=O)c3ccncc3)cn(CC(=O)Nc3ccc(F)cc3F)c2cc1Cl`, the RP-LC retention time was 711 s.

`O=C(CSc1ccc(-c2ccco2)nn1)N1CCCCC1`: the RP-LC retention time stood at 690 s.

`O=C(NC1CCCC1)C1CCCN(c2nccn3nc(-c4ccccc4Cl)cc23)C1` (stereo not given) returned an RP-LC retention time of 915 s.

Compound `CC(C)CCNC(=O)C1CCN(C(=O)c2cc(-c3ccncc3)n[nH]2)CC1` yielded an RP-LC retention time of 591 s.

For the compound `Cc1ccc(-n2c(=O)c3c(cc(C)n3C)n(CC(=O)Nc3cc(C)cc(C)c3)c2=O)cc1`, the RP-LC retention time was found to be 844 s.

For `O=c1ccc(S(=O)(=O)N2CCCC2)cn1Cc1cccc(F)c1`, the RP-LC retention time is 826 s.

In turn, `Cn1cc(C(=O)N2CCN(c3ccccn3)CC2)c2cccnc21` gave an RP-LC retention time of 566 s.

For `Cc1nn(C(C)C(=O)NCCCN2CCCCC2)c(=O)c2c1sc1ccccc12` (stereo not given), the RP-LC retention time was determined as 680 s.

For the compound `Cc1nc(Nc2ccc(F)cn2)sc1C(=O)N1CCN(c2ccccn2)CC1`, the RP-LC retention time was determined as 602 s.

Regarding `O=C(NCc1ccccc1Br)c1cn2c(n1)CCCC2`, the RP-LC retention time came to 610 s.

The compound `O=C(c1ccc2ccnc(N3CCN(c4ccc(F)cc4)CC3)c2c1)N1CCC2(CC1)OCCO2` displayed an RP-LC retention time of 724 s.

`CCn1c(SC)nnc1-c1nn(C)c2c1CN(C(=O)c1c(F)cccc1F)CC2` gave an RP-LC retention time of 765 s.

As for `O=C(c1cc(-c2ccncc2)n[nH]1)N1CCN(C(=O)C2(c3ccccc3)CC2)CC1`, the RP-LC retention time amounted to 590 s.

`O=C(Cn1c(-c2cccnc2)nc2ccccc21)Nc1nccs1` returned an RP-LC retention time of 628 s.

Turning to `CC(C)c1csc(-c2csc(S(=O)(=O)NC3CCCCC3)c2)n1`, the RP-LC retention time came out at 1180 s.

`c1ccc(CSc2nc3ncncc3[nH]2)cc1` displayed an RP-LC retention time of 719 s.

Take `CSc1nnc(-c2nn(C)c3c2CN(C(=O)c2cccc(N(C)C)c2)CC3)n1C`: the RP-LC retention time worked out at 669 s.

`Cc1nnc2ccc(NC(C)C)nn12` displayed an RP-LC retention time of 676 s.

As to `O=c1nc(-c2ccccc2)c2ccccc2[nH]1`, the RP-LC retention time is 618 s.

As for `COc1ccc(C2(C(=O)N3CC(c4nc(CCOCc5ccccc5)no4)C3)CC2)cc1`, the RP-LC retention time amounted to 972 s.

Regarding `CCOC(=O)c1ccc2nc(C)cc(NC(=O)c3cccs3)c2c1`, the RP-LC retention time was 607 s.

In the case of `COCc1cc(=O)n(CC(=O)Nc2ccccc2OC)c(N2CCOCC2)n1`, the RP-LC retention time is 846 s.

For `O=C(NCc1cccc(Br)c1)c1csc(C(=O)N2CCCC2)n1`, the RP-LC retention time was 850 s.

For the compound `COCCNC(=O)Cn1c(=O)n(-c2ccc(F)cc2)c2ncccc21`, the RP-LC retention time was determined as 652 s.

`CCCCN1CCc2nc(N3CCN(c4ccccc4F)CC3)ncc2C1` yielded an RP-LC retention time of 715 s.

For `COc1cc(-c2noc(C3CC(=O)N(c4ccc(C(C)C)cc4)C3)n2)cc(OC)c1OC` (stereo not given), the RP-LC retention time stood at 605 s.

`Cc1csc(-c2cc(S(=O)(=O)NC(C)C)cn2CC(=O)N2CCCCC2)n1` yielded an RP-LC retention time of 873 s.

`Cn1ccc2cc(S(=O)(=O)N3CCCC(C(=O)NCCN4CCCCCC4)C3)ccc21` (stereo not given) had an RP-LC retention time of 668 s.

In the case of `Cc1sc(-c2cc(C(F)(F)F)on2)cc1S(=O)(=O)Nc1ccccc1`, the RP-LC retention time amounted to 1130 s.

`Cc1cc(N2CCN(c3ccccn3)CC2)n2nc(-c3ccco3)nc2n1` gave an RP-LC retention time of 584 s.

In the case of `Cc1cccc(CNS(=O)(=O)c2cn(CC(C)C)c3ncccc23)c1`, the RP-LC retention time worked out at 993 s.

The compound `O=S(=O)(Nc1ccc(Cn2cncn2)cc1)c1ccc2c(c1)CCC2` came in with an RP-LC retention time of 759 s.

`Cn1nnnc1C1CCCN(C(=O)C2CCC2)C1` (stereo not given) came in with an RP-LC retention time of 636 s.

In turn, `COc1cccc(-c2noc(N3CCN(c4ccccn4)CC3)n2)c1OC` registered an RP-LC retention time of 645 s.

`CN1CCc2ccccc2C1Cc1ccccc1NC(=O)c1sc2ccccc2c1Cl` (stereo not given) registered an RP-LC retention time of 852 s.

`Cc1ccc(-c2noc(Cn3ccn(-c4c(C)cccc4C)c(=O)c3=O)n2)cc1C` registered an RP-LC retention time of 1000 s.

Consider `CC(C)n1cnc(S(=O)(=O)N2CCCC(C(=O)Nc3cccc(Br)c3)C2)c1` (stereo not given), for which the RP-LC retention time is 898 s.

`Cc1nc(C)c(C(=O)NCC23CCCC=C2N(CC2CC2)C(=O)CC3)s1` (stereo not given) came in with an RP-LC retention time of 785 s.

As for `Cc1noc(C)c1Cc1ccc(C(=O)N2CCCCCCN(C)C(=O)[C@@H]3CCC[C@@H]32)o1`, the RP-LC retention time amounted to 814 s.

`COC(=O)c1c(C)[nH]c(C(=O)N2CCCC(C(=O)NCc3ccc(N(C)C)cc3)C2)c1C` (stereo not given) displayed an RP-LC retention time of 597 s.

In turn, `CN1C(=O)c2cc(C(=O)NCCc3ccccc3)nn2CC1(C)C(=O)NC1CCCC1` (stereo not given) yielded an RP-LC retention time of 761 s.

Compound `O=C(NCc1ccc(F)cc1Cl)C1=C2CCCN2c2ccccc2S1(=O)=O` yielded an RP-LC retention time of 913 s.

With `Cc1ccc(CN2CCN(CC(=O)Nc3ccncc3)C(=O)C2=O)cc1`, the RP-LC retention time stood at 588 s.

Take `Cn1cnc2c(C(=O)NC3CCCCC3)nn(-c3ccccc3)c2c1=O`: the RP-LC retention time was determined as 855 s.

`COc1cccc(C(=O)CC2(O)C(=O)Nc3c(C)cccc32)c1` (stereo not given) registered an RP-LC retention time of 728 s.

As for `CCn1cnc2ccc(C(=O)NC3CCCC3)cc2c1=O`, the RP-LC retention time came out at 688 s.

In turn, `O=C(Nc1ccccc1F)C1CCN(S(=O)(=O)c2cc(-c3noc(C4CCC4)n3)cs2)CC1` came in with an RP-LC retention time of 958 s.

`CC(C)Cn1cc(S(=O)(=O)Nc2ccc(Cl)cc2)c2cccnc21` displayed an RP-LC retention time of 988 s.

In the case of `O=C(Nc1ccc(-c2ccc3nnc(-c4ccncc4)n3n2)cc1)c1cccc(Cl)c1`, the RP-LC retention time turned out to be 675 s.

`O=C(NCc1ccc(F)cc1F)c1ccc2c(c1)ncn2CCN1CCCC1` returned an RP-LC retention time of 576 s.

The compound `Clc1ccc(Cl)c(-c2ccc(CNCc3ccccn3)o2)c1` came in with an RP-LC retention time of 733 s.

Consider `CCn1c(=O)c(C)nc2cc(-c3noc(-c4ccc(Br)o4)n3)ccc21`, for which the RP-LC retention time amounted to 1040 s.

In turn, `CC(C)CC(=O)N1CCN(c2nc3ccccc3n(CC(C)C)c2=O)CC1` gave an RP-LC retention time of 1080 s.

`COCCN1C(=O)c2ccccc2C(C(=O)NCc2ccco2)C1c1ccc(F)cc1` (stereo not given) had an RP-LC retention time of 822 s.

Source of the values: the METLIN SMRT retention time set (Domingo-Almenara et al. 2019).
